A word on the melting point: it is the temperature, or range, at which the solid turns liquid. The compound `c1csc(-c2n[nH]c3c2sc2ccccc23)c1` registered a melting point of 236 to 238 °C. Regarding `O=C(c1ccc(O)cc1)c1ccc2cc(C(=O)c3ccc(O)cc3)ccc2c1`, the melting point amounted to 307 °C. As for `CN1Cc2c(C#N)ccc3scc(c23)S1(=O)=O`, the figure is 238 °C; as for `COc1cc2c(cc1[N+](=O)[O-])NC(=O)CN(C(=O)OCc1ccccc1)C2`, 191 °C.

`Cc1ccc(Nc2c(N3CCCC3)cc(C(=O)O)cc2S(N)(=O)=O)cc1` came in with a melting point of 188 to 191 °C. Under `O=C(O)Cc1cc(C2CC2)ccc1Nc1ccc(-c2ccc(F)cc2)cc1F` stands 182 to 183 °C; under `CCCC(=O)c1ccc(OCCC(=O)O)c(Cl)c1Cl`, 138 to 139 °C. Under `O=C1NC(=O)C(c2ccc(OCCC(c3ccccc3)(c3ccccc3)c3ccccc3)cc2)S1` (stereo not drawn) stands 85 to 87 °C; under `COC(=O)COC(=O)C(c1ccccc1)N1CCN(c2ccc(NC(=O)c3ccccc3-c3ccc(C(F)(F)F)cc3)cc2)CC1` (stereo not drawn), 106 °C. As for `COC(=O)[C@@H]1C[C@H](OS(C)(=O)=O)C(=O)[C@H]2[C@@]1(C)CC[C@H]1C(=O)O[C@H](c3ccoc3)C[C@]21C`, the figure is 147 to 150 °C; as for `Cc1nc(N2CCN(CC3CC3)C2=O)sc1C(=O)NCc1ncccn1`, 218 to 220 °C. The compound `COC(=O)c1nc(Cl)c(F)c(N)c1SC` came in with a melting point of 75 to 77 °C. Turning to `C=CCN(CC=C)Cc1csc(-c2ncn3c2CN(C)C(=O)c2cc(F)ccc2-3)n1`, the melting point lay within 125 to 127 °C. Under `CC(C)C(=O)NN(C)C` stands 94 to 96 °C. `CC#CCOc1ccc(S(=O)(=O)C(C(=O)NO)c2ccc(Cl)cc2)cc1` (stereo not drawn) came in with a melting point of 140 °C. As for `CC(C)Sc1cc2c3cc(SC(C)C)c(SC(C)C)cc3c3cc(SC(C)C)c(SC(C)C)cc3c2cc1SC(C)C`, the figure is 165 to 168 °C.

`NC(Cc1ccccc1F)=NO` yielded a melting point of 85 to 87 °C. Under `COC(=O)c1ccc2cc(CCc3cc4c(C(=O)OC)cccc4o3)oc2c1` stands 175 to 177 °C.

`CC(=O)Nc1nc(N(C(C)=O)C(C)=O)c(CCC=O)c(=O)[nH]1` had a melting point of 164 to 168 °C. As for `Cn1nc(-c2ncc(Cl)cc2F)c(C=O)c1OC(F)F`, the figure is 111 to 116 °C.

With `COC(=O)Cn1c(C(=O)O)cc2ccccc21`, the melting point is 190 °C. Under `O=C(c1ccc(Cl)cc1)c1cccc2cc[nH]c12` stands 148 to 149 °C. Under `CCOC(=O)c1nn(Cc2ccc(Cl)c(Cl)c2)c(-c2ccc(Cl)cc2)c1C` stands 118 °C. The compound `CC(=O)CC(=S)SCc1cn(C(c2ccccc2)(c2ccccc2)c2ccccc2)nn1` had a melting point of 172 to 173 °C. As for `N#CCc1cn(Nc2ccncc2)c2ccccc12`, the figure is 80 to 83 °C; as for `COc1cccc(S(=O)(=O)n2c(COC(C)(C)C(=O)O)cc3nc(Cl)ccc32)c1`, 130 °C; as for `Cc1ccc(S(=O)(=O)N2CCC[C@H]2CN2CCN(C)CC2)cc1`, 96.5 to 97.7 °C. `O=C1COC2(CCN(CCc3ccccc3)CC2)CN1`: the melting point was 140 to 141 °C. Turning to `CC(C)c1nn(-c2ccc(C(F)(F)F)cn2)cc1CCCOc1c(Br)cccc1CC(=O)O`, the melting point lay within 146 to 147 °C. On to `COc1ccc(OCC2(CI)CC2)cc1`, for which the melting point was in the range of 53 to 54 °C.

For the compound `c1ccc(Cc2n[nH]c(NCCCOc3cccc(CN4CCCCC4)c3)n2)cc1`, the melting point was in the range of 143 to 144 °C.

The compound `COc1ccc2c(c1)C(=O)C(Br)=C(Br)C2=O` displayed a melting point of 146 to 148 °C. As for `CCCCc1nc(Cl)c(C(=O)OC)n1Cc1ccc(-c2ccccc2C(=O)O)cc1`, the figure is 154 to 155 °C; as for `COC(=O)NCCOC(=O)COc1cc(Oc2ccc(C(F)(F)F)cc2Cl)ccc1[N+](=O)[O-]`, 105 to 108 °C; as for `Cc1sc(-c2cnc3ccccc3c2)nc1O`, 279 to 280 °C. As for `CCCN(CCCN1CCc2cc(OC)c(OC)cc2CC1=O)CCc1ccc(OC)c(OC)c1`, the figure is 56 to 70 °C; as for `COc1ccc(C(=O)Nc2ccccc2)cc1NC(=S)Nc1cc(C)cc(C)c1`, 203 to 205 °C; as for `OC1c2ccccc2-c2nc(-c3ccc(Cl)cc3Cl)ncc21` (stereo not drawn), 188 °C. `CN(C)C(=O)c1ccc(C=O)cc1`: the melting point lay within 198 to 202 °C. As for `CNc1ccc(C(O)(C(F)(F)Cl)C(F)(F)Cl)cc1`, the figure is 92 to 94 °C. As for `COc1ccc(-c2cc(-c3ccc(-c4c(Cc5ccccc5)sc5ccccc45)cc3)ccc2OCC(=O)O)cc1OC`, the figure is 95 to 97 °C. Compound `O=Cc1nccc(OCc2ccccc2)c1OCc1ccccc1` showed a melting point of 103 to 104 °C. Under `COc1ccc2nc(C)c(CCCl)c(=O)n2c1` stands 150 °C; under `CCOP(=O)(CCc1cccc(-c2nc(=O)c3ccccc3s2)n1)OCC`, 149 to 150 °C; under `O=C(CCl)NCc1ccc(-c2cc3c(Nc4ccc(F)c(Cl)c4)ncnc3[nH]2)cc1`, 320 to 325 °C. Under `COC(=O)C(NCc1ccccc1)c1c[nH]c2ccccc12` (stereo not drawn) stands 91.5 to 93 °C.

For `CC(N)C(=O)Nc1ccc([N+](=O)[O-])cc1C(=O)c1ccccc1Cl` (single isomer, unassigned; (+)), the melting point is 132 °C. As for `Cc1c(C(=O)O)cnn1CC(F)(F)F`, the figure is 188 to 190 °C; as for `COc1ccc2c(c1)S(=O)(=O)C(C(=O)Nc1cccc(C(F)(F)F)c1)C(=O)N2C` (stereo not drawn), 165 to 168 °C.

The compound `CC(=O)c1ccc(NS(C)(=O)=O)c(Oc2ccccc2S(C)(=O)=O)c1` yielded a melting point of 189 to 191 °C. The compound `CCC(C#N)Oc1nc2cc(OC)cc(OC)c2cc1-c1ccc(OC)cc1` (stereo not drawn) had a melting point of 89 to 90 °C.

Consider `Cc1cccc(-c2n[nH]cc2-c2ccc(F)c(-c3ccc(S(=O)(=O)C(F)F)cc3)c2)n1`, for which the melting point lay within 80 to 82 °C. `O=Cc1cccc(Cl)c1SCc1ccccc1` came in with a melting point of 65 to 68 °C. As for `CC(F)(F)c1ccc2c(c1)C=C(C(=O)O)C(C(F)(F)F)O2` (stereo not drawn), the figure is 156 to 158 °C. Consider `Cc1nc2c(C(=O)O)c(C(=O)O)ccc2n1Cc1ccccc1`, for which the melting point was 224 to 226 °C.

As for `O=[N+]([O-])c1ccc2nc(CO)[nH]c2c1`, the melting point was 157 to 162 °C.

With `O=C(CC1CCN(C(=O)OCc2ccccc2)CC1)c1c[nH]c2ccccc12`, the melting point was 122 °C.

`CCN(CC)C(=O)c1ccc(-c2nc(=O)c3ccccc3s2)cc1` had a melting point of 180 °C. Under `COc1ccc(C[C@@H](NC(=O)C2CCCCC2)[C@@H](O)c2ccc(F)cc2)cc1` (racemic) stands 193 to 194 °C; under `COC(=O)CC1CCc2ccc(OCc3ccc(C#N)cc3)cc2C1` (stereo not drawn), 120 to 122 °C.

`COc1ccc(Cl)cc1C(=O)N(CCCC(=O)O)c1ccc(OC)c(-c2ccccc2)c1` showed a melting point of 155 to 156 °C. Compound `Nc1nc(N)nc(-c2ccc(NS(=O)(=O)c3ccc4ccccc4c3)cc2)n1` had a melting point of 230 to 233 °C. As for `Cn1cnc(C(N)=O)c1NC(=S)NC(=O)c1ccccc1`, the figure is 194 to 196 °C; as for `COc1c(NC(=O)c2ccc(Br)cc2)ccc2cc(CN3CCCC3)cnc12`, 121 to 122 °C; as for `c1cc(Nc2nnc3c4c(cccc24)-c2ccccc2-3)cc(-n2ccnc2)c1`, 223 to 226 °C.

Compound `O=C(c1cc(I)c[nH]1)C(Cl)(Cl)Cl` returned a melting point of 140 °C. As for `COC(=O)c1cc(C(=O)N(C)C)c2cc(Cc3ccc(F)cc3)cnc2c1O`, the figure is 219 to 220 °C; as for `CCC(OC(=O)C1CC1)c1ccc(Cl)c2nc3n(c12)CCCN3c1ncc(Cl)cc1Cl` (stereo not drawn), 154 to 155 °C; as for `O=C1N(N2CCOCC2)c2ccccc2C1(Cc1ccccn1)Cc1ccccn1`, 157 to 159 °C.

For `CC1(c2ccc(OCc3ccccc3[Si](C)(C)C)cc2)OC(=O)N(Nc2ccccc2)C1=O` (stereo not drawn), the melting point lay within 112 to 114 °C. Under `O=C(O)C(=O)c1ccc(OCc2cc3ccccc3o2)cc1` stands 120 °C.

In the case of `Cc1ccc(CSc2nc3cc4c(cc3[nH]2)OC(C)O4)nc1`, the melting point lay within 147 to 148 °C. As for `CCC(=O)OCC(=O)Nc1nc2ccc(OC)cc2s1`, the figure is 145 to 147 °C; as for `CC(=O)Nc1ccc(S(=O)(=O)NCCc2ccccc2)cc1`, 98 °C.

For the compound `O=C(c1ccc(I)cc1)c1ccc2[nH]c(=O)cc(-c3cccc(Cl)c3)c2c1`, the melting point stood at 251 °C.

Compound `C[C@H](NC(=O)c1cccnc1Oc1cccnc1)c1cccs1` yielded a melting point of 196 to 198 °C. As for `O=C(O)c1ccc([N+](=O)[O-])cc1-c1ccccc1`, the figure is 174 to 176 °C; as for `NCc1ccc(C2CCN(c3cc4c(cc3F)c(=O)c(C(=O)O)cn4C3CC3)C2)cc1` (stereo not drawn), 268 to 272 °C.

Regarding `COc1ccc(CNc2nnc(N3CCC(CO)CC3)c3ccc(Cl)cc23)cc1Cl`, the melting point is 128 to 131 °C.

Regarding `CCCc1c(O)ccc2c(=O)cc(C(=O)OC)oc12`, the melting point lay in the range of 222 to 224 °C. For the compound `CCOc1cccc(CNCCc2ccccc2)c1O`, the melting point is 88 to 90 °C. Under `Cc1ccc(-c2ccc(C)c(C(N)=O)c2N)cc1` stands 250 °C; under `CC1(C)OC(=O)C(Oc2ccc(Cl)cc2)=C1c1ccc(S(C)(=O)=O)cc1`, 113 to 114 °C; under `OCC1OC(n2c(Cl)nc3ccc(Br)cc32)C(O)C1O` (stereo not drawn), 152 to 153 °C. As to `C=C1C(=O)c2ccccc2OC1c1ccc(Cl)cc1Cl` (stereo not drawn), the melting point was in the range of 86 to 87 °C. As for `CCCCCCNC(=O)[C@@H](NC(=O)OC(C)(C)C)C(C)C`, the figure is 74 to 76 °C; as for `C#CCNC(NCCSCc1[nH]cnc1C)=C(C#N)C(N)=O`, 88 to 94 °C.

Take `O=C(O)c1cnc(O)cc1Cl`: the melting point lay in the range of 299 to 300 °C.

The values are drawn from a melting point compilation (Tetko et al.; mined from patent text by program, amines drawn as free bases though some values may be those of a salt).
